Source: patent publication US8012967B2, “Minor groove binders” (University of Strathclyde, priority 2006, dated 2011)
Read-outs that look alike come from different tables or passages of the source.

Columns and labels:
Format in all cases: cell-based
[1] = system: Candida albicans (NCPF3179); experiment: MIC, Candida albicans; settings: Candida albicans, NCPF3179, read-out: Minimum inhibitory concentrations (MICs), C. albicans
Procedure: (§1) The effects of compounds of the invention in relation to inhibiting the growth of various microorganisms was determined using methods known to those skilled in the art, for example in vitro methods as described in J. Med. Chem. 47, 2133-2156 (2004) and in vivo methods as described in J. Med. Microbiol. 46, 208-213 (1997), the disclosures of which documents are hereby incorporated by reference. In particular, minimum inhibitory concentrations (MICs) against microorganisms (e.g. S. Aureus, Streptococcus faecalis, Aspergillus niger, Candida albicans or Mycobacterium fortuitum) for compounds of the invention may be measured using procedures such as those described in A. J. Drummond and […] development of microbiological methods for phytochemical screening” Recent Res. Devel. […] The test wells on each 96 well microtitre plate were initially inoculated with culture medium (100 μL) using Mueller-Hinton Broth for antibacterial assays and Sabouraud Broth for antifungal assays. A solution of each test sample (100 μL) was added to one row of each plate and a series of doubling dilutions made for successive rows. Incubation was at 37° C. for antibacterial assay and 25° C. for antifungal assay. […] From the observed pattern of colour, the MIC was determined. All tests included sterility and growth controls.

[2] = system: Staphylococcus aureus Strain 1 (BSAC04(1)) (Clinical isolate from Glasgow Royal Infirmary); experiment: MIC, Staphylococcus aureus Strain 1; settings: Staphylococcus aureus, read-out: Minimum inhibitory concentrations (MICs), S aureus 1
Procedure: The effects of compounds of the invention in relation to inhibiting the growth of various microorganisms was determined using methods known to those skilled in the art, for example in vitro methods as described in J. Med. Chem. 47, 2133-2156 (2004) and in vivo methods as described in J. Med. Microbiol. 46, 208-213 (1997), the disclosures of which documents are hereby incorporated by reference.
In particular, minimum inhibitory concentrations (MICs) against microorganisms (e.g. S. Aureus, Streptococcus faecalis, Aspergillus niger, Candida albicans or Mycobacterium fortuitum) for compounds of the invention may be measured using procedures such as those described in A. J. Drummond and R. D. Waigh “The development of microbiological methods for phytochemical screening” Recent Res. Devel. Phytochem. 4, 143-152 (2000), the disclosures of which document are hereby incorporated by reference.
Sample dilutions were typically prepared by dissolving the test sample (2 mg) in sterile water (10 mL) to provide a working concentration of 200 μg/ml. The test wells on each 96 well microtitre plate were initially inoculated with culture medium (100 μL) using Mueller-Hinton Broth for antibacterial assays and Sabouraud Broth for antifungal assays. A solution of each test sample (100 μL) was added to one row of each plate and a series of doubling dilutions made for successive rows. Incubation was at 37° C. for antibacterial assay and 25° C. for antifungal assay. […] From the observed pattern of colour, the MIC was determined. All tests included sterility and growth controls.

[3] = system: Mycobacter fortuitum (NCTC 10394); experiment: MIC, Mycobacter fortuitum; settings: Mycolicibacterium fortuitum, NCTC10394, read-out: Minimum inhibitory concentrations (MICs), M. fortuitum
Procedure: as §1

[4] = system: Streptococcus faecalis (NCTC 775); experiment: MIC, Streptococcus faecalis; settings: Enterococcus faecalis, NCTC775, read-out: Minimum inhibitory concentrations (MICs), St. faecalis
Procedure: as §1

[5] = system: Aspergillus niger (IMI 1745); experiment: MIC, Aspergillus niger; settings: Aspergillus niger, read-out: Minimum inhibitory concentrations (MICs), A. niger
Procedure: as §1

[6] = system: Staphylococcus aureus Strain 2 (NCTC 6571); experiment: MIC, Staphylococcus aureus Strain 2; settings: Staphylococcus aureus, NCTC6571, read-out: Minimum inhibitory concentrations (MICs), S. aureus 2
Procedure: as §1

[7] = value in parentheses, na = not active

SMILES	MIC [1, 7] [µg/mL]	MIC ([1]; value outside parentheses) [µM]	MIC [2, 7] [µg/mL]	MIC ([2]; value outside parentheses) [µM]	MIC [3, 7] [µg/mL]	MIC ([3]; value outside parentheses) [µM]	MIC [4, 7] [µg/mL]	MIC ([4]; value outside parentheses) [µM]	MIC [5, 7] [µg/mL]	MIC ([5]; value outside parentheses) [µM]	MIC [6, 7] [µg/mL]	MIC ([6]; value outside parentheses) [µM]
CC(C)CCc1sc(NC(=O)c2cc(NC(=O)c3ccc(/C=C/c4cc5ccccc5nc4Cl)cc3)cn2C)nc1C(=O)NCCN1CCOCC1 [Example 17, 2-({[4-({4-[(E)-2-(2-Chloro-3-quinolinyl)ethenyl]benzoyl}amino)-1-methyl-1H-pyrrol-2-yl]carbonyl}amino)-5-isopentyl-N-[2-(4-morpholinyl)ethyl]-1,3-thiazole-4-carboxamide]	100	117			100	117						
CC(C)CCc1sc(NC(=O)c2cc(NC(=O)c3ccc(/C=C/c4cc5ccccc5nc4On4nnc5ccccc54)cc3)cn2C)nc1C(=O)NCCN1CCOCC1 [Example 18, 2-[({4-[(4-{(E)-2-[2-(1H-1,2,3-Benzotriazol-1-yloxy)-3-quinolinyl]ethenyl}-benzoyl)amino]-1-methyl-1H-pyrrol-2-yl}carbonyl)amino]-5-isopentyl-N-[2-(4-morpholinyl)ethyl]-1,3-thiazole-4-carboxamide]	100	169			100	169						
COc1ccc(/C=C/c2ccc3cc(C(=O)Nc4cc(C(=O)Nc5cc(C(=O)NCCN6CCOCC6)n(C)c5)n(C)c4)ccc3n2)cc1 [Example 23, 2-[(E)-2-(4-Methoxyphenyl)ethenyl]-N-[1-methyl-5-({[1-methyl-5-({[2-(4-morpholinyl)ethyl]amino}carbonyl)-1H-pyrrol-3-yl]amino}carbonyl)-1H-pyrrol-3-yl]-6-quinolinecarboxamide]	100	129	4	5.2	100	129	25	32	50	64		
CSc1ccc(/C=C/c2ccc3cc(C(=O)Nc4cc(C(=O)Nc5cc(C(=O)NCCN6CCOCC6)n(C)c5)n(C)c4)ccc3n2)cc1 [Example 24, N-[1-Methyl-5-({[1-methyl-5-({[2-(4-morpholinyl)ethyl]amino}carbonyl)-1H-pyrrol-3-yl]amino}carbonyl)-1H-pyrrol-3-yl]-2-{(E)-2-[4-(methylsulfanyl)-phenyl]ethenyl}-6-quinolinecarboxamide]	100	126	4	5.1			100	26	100	126	100	126

Results, then the compound that gave them:

MIC [1, 7] [µg/mL]	MIC ([1]; value outside parentheses) [µM]	MIC [2, 7] [µg/mL]	MIC ([2]; value outside parentheses) [µM]	MIC [3, 7] [µg/mL]	MIC ([3]; value outside parentheses) [µM]	MIC [4, 7] [µg/mL]	MIC ([4]; value outside parentheses) [µM]	MIC [5, 7] [µg/mL]	MIC ([5]; value outside parentheses) [µM]	MIC [6, 7] [µg/mL]	MIC ([6]; value outside parentheses) [µM]	SMILES
100	116	4	5.3	100	116	12.5	15					Cn1cc(NC(=O)c2cc(NC(=O)c3cc(/C=C/c4cnc5ccccc5c4)cn3C)cn2C)cc1C(=O)NCCN1CCOCC1 [Example 10, 1-Methyl-N-[1-methyl-5-({[1-methyl-5-({[2-(4-morpholinyl)ethyl]amino}-carbonyl)-1H-pyrrol-3-yl]amino}carbonyl)-1H-pyrrol-3-yl]-4-[(E)-2-(3-quinolinyl)ethenyl]-1H-pyrrole-2-carboxamide]
50	61			100	122			100	122			CC(C)CCc1sc(NC(=O)c2cc(NC(=O)c3ccc(/C=C/c4cnc5ccccc5c4)cc3)cn2C)nc1C(=O)NCCN1CCOCC1 [Example 16, 5-Isopentyl-2-({[1-methyl-4-({4-[(E)-2-(3-quinolinyl)ethenyl]benzoyl}amino)-1H-pyrrol-2-yl]carbonyl}amino)-N-[2-(4-morpholinyl)ethyl]-1,3-thiazole-4-carboxamide]
50	67	0.5	0.67	100	135	25	34	100	135	50	67	CSc1ccc(/C=C/c2ccc(C(=O)Nc3cc(C(=O)Nc4cc(C(=O)NCCN5CCOCC5)n(C)c4)n(C)c3)cn2)cc1 [Example 25, N-[1-methyl-5-({[1-methyl-5-({[2-(4-morpholinyl)ethyl]amino}carbonyl)-1H-pyrrol-3-yl]amino}carbonyl)-1H-pyrrol-3-yl]-6-{(E)-2-[4-(methylsulfanyl)-phenyl]ethenyl}nicotinamide]
